Experiments:
Mecp2-deficient mice [1] = test: Open-field activity (total distance moved, velocity); format: in vivo, mouse
Description: Experiments were performed on Sprague dawley rats and B6.129P2(C)- MeCP2 tm1-1 Bird mouse model for RTT (Guy, J., Hendrich, B., Holmes, M., Martin, J. E., Bird, A. (2001) A mouse Mecp2-null mutation causes neurological symptoms that mimic Rett syndrome. Nat. Genet. 27, 322-326). The mice were obtained from the Jackson Laboratory and maintained on a C57BL/6 background. The rats were obtained from Charles River Laboratories, France. The experimental procedures were carried out in keeping with the European guidelines for the care and use of laboratory animals (Council Directive […]). For the mouse experiments, hemizygous mutant males (MeCP2^-/y) were generated by crossing heterozygous knockout females to C57BL/6 males. Genotyping was performed by routine PCR technique according to Jackson Laboratory protocols and as previously described (Viemari, J. C., Roux, J. C., Tryba, A. K., Saywell, V., Burnet, H., Peña, F., Zanella, S., Bévengut, M., Barthelemy-Requin, M., Herzing, L. B., Moncla, A., Mancini, J., Ramirez, J. M., Villard, L., Hilaire, G. (2005) Mecp2 deficiency disrupts norepinephrine and respiratory systems in mice. J. Neurosci. 25, 11521-11530).
From P30, animals received a cysteamine treatment in their drinking water (225 mg/kg/day) (Sigma-Aldrich; St-Quentin, France). Every 2 days, mice were weighted, cysteamine solution renewed and treatment consumption checked. […] Seventy-nine Mecp2 deficient mice were studied (lifespan study, n=17 cysteamine-treated and n=42 untreated; motor evaluation n=10 cysteamine-treated and n=10 untreated). The mice were assigned to each experimental group by an investigator who was blind to their genotype. Open-field activity was measured in an arena made of clear perspex (38×30 cm). The test session lasted 15 min with data recorded using the Ethovision 2.3.19 tracking system (Noldus Information Technology). Velocity (cm/s) and total distance moved (cm) were recorded. Velocity calculations on Ethovision were obtained using an input filter setting the minimal distance moved (0.6 cm) so that ambulations shorter than this value were never taken into account.

Mecp2-deficient mice [2] = test: Lifespan (survival) study, oral cysteamine in drinking water; format: in vivo, mouse; details: cysteamine in drinking water 225 mg/kg/day from P30, mean±SEM, n=17, p<0.05 vs vehicle (65±2.2 days), Kaplan-Meir log-rank test
Description: Experiments were performed on Sprague dawley rats and B6.129P2(C)- MeCP2 tm1-1 Bird mouse model for RTT (Guy, J., Hendrich, B., Holmes, M., Martin, J. E., Bird, A. (2001) A mouse Mecp2-null mutation causes neurological symptoms that mimic Rett syndrome. Nat. Genet. 27, 322-326). The mice were obtained from the Jackson Laboratory and maintained on a C57BL/6 background. The rats were obtained from Charles River Laboratories, France. The experimental procedures were carried out in keeping with the European guidelines for the care and use of laboratory animals (Council Directive […]). For the mouse experiments, hemizygous mutant males (MeCP2^-/y) were generated by crossing heterozygous knockout females to C57BL/6 males. […]
From P30, animals received a cysteamine treatment in their drinking water (225 mg/kg/day) (Sigma-Aldrich; St-Quentin, France). […] Open-field activity was measured in an arena made of clear perspex (38×30 cm). The test session lasted 15 min with data recorded using the Ethovision 2.3.19 tracking system (Noldus Information Technology). Velocity (cm/s) and total distance moved (cm) were recorded. […]

NCCS [cysteamine]
locomotion in open field arena (total distance moved and velocity) (Mecp2-deficient mice [1]; Mecp2-deficient mice, chronic oral cysteamine vs placebo group, especially in the later stages): significantly improved locomotion
mouse velocity in open field (Mecp2-deficient mice [1]; Mecp2-deficient mice, oral cysteamine vs vehicle, from P65, p<0.05, n=10 per group): significantly increased
total distance traveled in the open field arena during the 15-minute session (Mecp2-deficient mice [1]; Mecp2-deficient mice, oral cysteamine vs vehicle, from P75, n=10 per group): statistically increased
total distance, difference between cysteamine treated and placebo group (Mecp2-deficient mice [1]; P55, open field 15 min): +3%
velocity, difference between cysteamine treated and placebo group (Mecp2-deficient mice [1]; P55, open field 15 min): +18%
total distance, difference between cysteamine treated and placebo group (Mecp2-deficient mice [1]; P65, open field 15 min): +40%
velocity, difference between cysteamine treated and placebo group (Mecp2-deficient mice [1]; P65, open field 15 min): +33%
total distance, difference between cysteamine treated and placebo group (Mecp2-deficient mice [1]; P75, open field 15 min): +128%
velocity, difference between cysteamine treated and placebo group (Mecp2-deficient mice [1]; P75, open field 15 min): +65%
total distance, difference between cysteamine treated and placebo group (Mecp2-deficient mice [1]; P85, open field 15 min): +485%
velocity, difference between cysteamine treated and placebo group (Mecp2-deficient mice [1]; P85, open field 15 min): +74%
life span (Mecp2-deficient mice [2]): 74.8 ± 5.2 days

— US20150265554A1, “Treatment of MeCP-2 Associated Disorders” (UNIVERSITÉ D'AIX-MARSEILLE, priority 2010, published 2015)
